Patent US20230405315A1, “Compositions And Methods For Treating With A Combination Of Alternating Electric Fields And FGF Inhibitors” (NOVOCURE GMBH, priority 2022, published 2023)

Tests used:
[1] = system: FGFR1 mRNA expression in SRC1 and SRC2 glioblastoma stem cells; assay: FGFR1 mRNA expression by qPCR in glioblastoma stem cells treated with TTFields and FGFR inhibitor; type: cell-based; conditions: PMGB 125 nM concomitantly with TTFields 200 kHz for 3 days
Protocol: FGFR1 mRNA level was quantified by qPCR in SRC1 and SRC2 glioblastoma stem cells after 3 days treatment with TTFields (200 kHz). Results are expressed in Fold change of FGFR1 expression in cells treated with TTFields compared to FGFR1 expression in non treated cells with TTFields.
Pemigatininb (PMGB) is an FGFR inhibitor. SRC1 and SRC2 were treated concomitantly with PMGB (125 nM) and TTFields (200 kHz) for 3 days. Results are expressed in Fold change of FGFR1 expression in cells treated with TTFields compared to FGFR1 expression in control cells.
(§1) This study focuses on the involvement of FGFR1 in the control of sensitivity to TTFields. The study was performed on several glioblastoma stem cells (GSC) fully characterized in vitro and in vivo that were obtained from clinical trial STEMRI (NCT01872221) at Institut Claudius Regaud. The inventors wish to thank Institut Claudius Regaud for providing the glioblastoma stem cells used in these experiments.

[2] = system: GBM biopsy specimen (SRA4, SRC1, SRC2, SRB2, and SRA5) glioblastoma stem cells; assay: Cell survival to TTFields in the presence of FGFR1 inhibitor; type: cell-based; conditions: 5 GBM biopsy specimen, 3 days of TTFields 200 kHz and PMGB 125 nM
Protocol: as §1
The mechanism of radiation to induce cell death can be a result of DNA damage which leads to apoptosis, because it is known that TTFields also generate DNA damage and reduce the DNA repair mechanism. Radio sensitization is […] following addition of FGFR inhibitor. There is increased sensitivity to TTFields when there is concomitant treatment with FGFR inhibition which indicates a synergistic result of increased secretion of FGF family members in serum and conditioned media following TTFields application, thus explaining the reduced sensitivity of cells to TTFields.

FGF1, 2, 3, or 4 = conditions: comparison with lenvatinib (nonselective inhibitor of FGFR); cited from earlier work

CCN1C(=O)N(c2c(F)c(OC)cc(OC)c2F)Cc2cnc3[nH]c(CN4CCOCC4)cc3c21 [Pemigatinib]
FGFR1 mRNA expression induced by TTFields (fold change vs control cells) ([1]; listed as PMGB): inhibited | FGFR1 mRNA expression induced by TTFields (fold change vs control cells) ([1]; listed as pemigatinib): inhibition | Cytotoxic effect / cell survival [2]: cytotoxic effect | IC50 against at least one of FGF1, 2, 3, or 4, compared with lenvatinib (FGF1, 2, 3, or 4): significantly lower IC50
